Entries after “also recorded” stand apart in the source; their conditions may differ.
Experiments:
Assay type in all cases: cell-based
OxR2 with HA-TRHR = target: T1, OxR2 with HA-TRHR (Homo sapiens, UniProt O43614+P34981); assay: eBRET between OxR2/Rluc8 and barr2/Venus with HA-TRHR as IG3
T1 construct: expressed in transfected cells; host or cells: HEK293
T1 sequence (O43614 1-444): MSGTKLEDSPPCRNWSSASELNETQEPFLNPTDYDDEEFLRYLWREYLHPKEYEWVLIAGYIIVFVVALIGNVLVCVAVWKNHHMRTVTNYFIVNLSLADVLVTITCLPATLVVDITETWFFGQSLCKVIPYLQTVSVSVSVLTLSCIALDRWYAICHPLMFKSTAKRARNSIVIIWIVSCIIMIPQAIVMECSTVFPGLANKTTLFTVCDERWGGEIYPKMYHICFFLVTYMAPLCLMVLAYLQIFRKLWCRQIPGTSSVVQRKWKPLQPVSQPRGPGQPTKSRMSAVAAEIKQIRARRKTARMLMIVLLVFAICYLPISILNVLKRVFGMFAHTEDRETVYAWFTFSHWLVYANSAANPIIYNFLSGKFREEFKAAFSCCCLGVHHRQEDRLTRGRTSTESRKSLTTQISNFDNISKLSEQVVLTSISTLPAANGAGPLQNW
T1 sequence (P34981 1-398): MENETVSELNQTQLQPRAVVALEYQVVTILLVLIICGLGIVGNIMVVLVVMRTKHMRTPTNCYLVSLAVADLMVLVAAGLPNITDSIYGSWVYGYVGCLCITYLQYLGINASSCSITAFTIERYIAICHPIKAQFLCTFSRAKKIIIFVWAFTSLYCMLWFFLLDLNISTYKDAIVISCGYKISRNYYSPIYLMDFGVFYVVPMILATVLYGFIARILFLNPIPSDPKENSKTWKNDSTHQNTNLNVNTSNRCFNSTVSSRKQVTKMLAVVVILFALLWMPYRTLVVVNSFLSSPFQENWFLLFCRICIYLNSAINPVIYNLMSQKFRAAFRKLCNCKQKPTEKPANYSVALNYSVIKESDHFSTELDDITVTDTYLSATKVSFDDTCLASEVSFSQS
Protocol: (§1) Phosphate-buffered saline (PBS) was used as a vehicle control.
(§2) Cells were seeded in 6-well plates at a density of approximately 630,000 cells/well (HEK293FT) or approximately 150,000 cells/well (COS-7) and maintained at 37° C., 5% CO2 in Complete Media (DMEM containing 0.3 mg/ml glutamine, 100 IU/ml penicillin and 100 μg/ml streptomycin (Gibco)) supplemented with 10% fetal calf serum (FCS; Gibco). Transient transfections were carried out 24 h after seeding using GeneJuice (Novagen) or Metafectene (Biontex) according to manufacturer instructions. 24 h post-transfection, cells were washed with PBS, detached using 0.05% trypsin/0.53 mM EDTA, resuspended in HEPES-buffered phenol red free Complete Media containing 5% FCS and added to a poly-L-lysine-coated white microplate (Nunc). 48 h post-transfection, eBRET assays were carried out following pre-incubation of cells with EnduRen™ (Promega) at a final concentration of 30-40 μM, at 37° C., 5% CO2 for 2 h. For original BRET studies, the HEPES-buffered phenol red free Complete Media was replaced with PBS and coelenterazine h (Molecular Probes) added to a final concentration of 5 μM immediately prior to commencing the assay. […] Filtered light emissions were sequentially measured for 3-5 s in each of the ‘donor wavelength window’ (400-475 nm) and ‘acceptor wavelength window’ (>500 nm for EGFP or 520-540 nm for EYFP, Topaz (TYFP) or Venus). […]

[1] = test system: TRHR335 (truncated TRHR) with OxR2; assay: eBRET/BRET between TRHR335/Rluc and labelled beta-arrestin with OxR2 as IG3
Protocol: Cells were seeded in 6-well plates at a density of approximately 630,000 cells/well (HEK293FT) or approximately 150,000 cells/well (COS-7) and maintained at 37° C., 5% CO2 in Complete Media (DMEM containing 0.3 mg/ml glutamine, 100 IU/ml penicillin and 100 μg/ml streptomycin (Gibco)) supplemented with 10% fetal calf serum (FCS; Gibco). Transient transfections were carried out 24 h after seeding using GeneJuice (Novagen) or Metafectene (Biontex) according to manufacturer instructions. 24 h post-transfection, cells were washed with PBS, detached using 0.05% trypsin/0.53 mM EDTA, resuspended in HEPES-buffered phenol red free Complete Media containing 5% FCS and added to a poly-L-lysine-coated white microplate (Nunc). 48 h post-transfection, eBRET assays were carried out following pre-incubation of cells with EnduRen™ (Promega) at a final concentration of 30-40 μM, at 37° C., 5% CO2 for 2 h. For original BRET studies, the HEPES-buffered phenol red free Complete Media was replaced with PBS and coelenterazine h (Molecular Probes) added to a final concentration of 5 μM immediately prior to commencing the assay. […] Filtered light emissions were sequentially measured for 3-5 s in each of the ‘donor wavelength window’ (400-475 nm) and ‘acceptor wavelength window’ (>500 nm for EGFP or 520-540 nm for EYFP, Topaz (TYFP) or Venus). The BRET signal observed between interacting proteins is normalized by subtracting the background BRET ratio.

[2] = test system: thyrotropin releasing hormone receptor (TRHR); assay: eBRET/BRET beta-arrestin recruitment to TRHR/Rluc without IG3 (pcDNA3) in HEK293 cells
Protocol: eBRET measurements at 37 C were carried out on HEK293 cells transiently co-expressing TRHR/Rluc and barr2/Venus with either pcDNA3, orexin receptor 2 (OxR2), CXC chemokine receptor 2 (CXCR2), hemagglutin epitope-tagged melanocortin receptor 3 or 4 (HA-MC3R or HA-MC4R), or dopamine D2 receptor long form (D2LR) or short form (D2SR) following the treatment of each with their respective ligands.
Ligand treatments were either OxA or TRH only or both OxA and TRH combined. Phosphate-buffered saline (PBS) was used as a vehicle control.
Ligand treatments were either OxA or TRH only. Phosphate-buffered saline (PBS) was used as a vehicle control.
BRET measurements at 37 C were carried out on HEK293 cells transiently co-expressing TRHR/Rluc, barr2/Venus and pcDNA3 with increasing doses of TRH. Sigmoidal dose response curves were plotted using Prism (Graph Pad), either assuming a Hill slope of 1 or allowing for variable slope. The EC50 and Hill slope values for the variable slope curve are included in a table in the graph.
TRHR is IG1, Rluc is RC1, barr1 is IG2, EGFP is RC2 and OxR2 is IG3. The same amount of EGFP/barr1 (IG2-RC2) is transfected for each experiment.
Cells were seeded in 6-well plates at a density of approximately 630,000 cells/well (HEK293FT) or approximately 150,000 cells/well (COS-7) and maintained at 37° C., 5% CO2 in Complete Media (DMEM containing 0.3 mg/ml glutamine, 100 IU/ml penicillin and 100 μg/ml streptomycin (Gibco)) supplemented with 10% fetal calf serum (FCS; Gibco). Transient transfections were carried out 24 h after seeding using GeneJuice (Novagen) or Metafectene (Biontex) according to manufacturer instructions. 24 h post-transfection, cells were washed with PBS, detached using 0.05% trypsin/0.53 mM EDTA, resuspended in HEPES-buffered phenol red free Complete Media containing 5% FCS and added to a poly-L-lysine-coated white microplate (Nunc). 48 h post-transfection, eBRET assays were carried out following pre-incubation of cells with EnduRen™ (Promega) at a final concentration of 30-40 μM, at 37° C., 5% CO2 for 2 h. For original BRET studies, the HEPES-buffered phenol red free Complete Media was replaced with PBS and coelenterazine h (Molecular Probes) added to a final concentration of 5 μM immediately prior to commencing the assay. BRET measurements were taken at 37° C. using the Victor Light plate reader with Wallac 1420 software (Perkin-Elmer). Filtered light emissions were sequentially measured for 3-5 s in each of the ‘donor wavelength window’ (400-475 nm) and ‘acceptor wavelength window’ (>500 nm for EGFP or 520-540 nm for EYFP, Topaz (TYFP) or Venus). The BRET signal observed between interacting proteins is normalized by subtracting the background BRET ratio. This can be done in one of two ways (see Pfleger et al. (2006) Cell Signal 18, 1664-1670; Pfleger et al. (2006) Nat Protoc 1, 336-344): 1) the ratio of light emission through the ‘acceptor wavelength window’ over the 400-475 nm emission for a cell sample containing only the donor construct is subtracted from the same ratio for a sample containing the interacting acceptor and donor fusion proteins; 2) the ratio of light emission through the ‘acceptor wavelength window’ over the 400-475 nm emission for a cell sample treated with vehicle is subtracted from the same ratio for a second aliquot of the same cell sample treated with ligand. In the following examples, the first calculation will be used, unless the signal is described as the ligand-induced BRET ratio'.

OxR2 = target: T2, OxR2 (Homo sapiens, UniProt O43614); assay: BRET/eBRET beta-arrestin 2 recruitment to OxR2/Rluc (or Rluc8) without IG3 (pcDNA3); conditions: OxR2/Rluc8 + barr2/Venus + pcDNA3
T2 construct: expressed in transfected cells; host or cells: HEK293
T2 sequence (O43614 1-444): T1 sequence (O43614 1-444)
Protocol: as §1, §2

[3] = target: bradykinin B2 receptor (B2R) with HA-AT1R (Homo sapiens, UniProt P30556); assay: eBRET between B2R/Rluc8 and barr2/Venus with HA-AT1R as IG3
Protocol: Phosphate-buffered saline (PBS) was used as a vehicle control. Data presented as ligand-induced BRET ratio.
BRET measurements at 37 C were carried out on HEK293 cells transiently co-expressing B2R/Rluc8, barr2/Venus and HA-AT1R treated with increasing doses of Angiotensin II (AngII). A sigmoidal dose response curve was plotted using Prism (GraphPad) allowing for variable slope.
Cells were seeded in 6-well plates at a density of approximately 630,000 cells/well (HEK293FT) or approximately 150,000 cells/well (COS-7) and maintained at 37° C., 5% CO2 in Complete Media (DMEM containing 0.3 mg/ml glutamine, 100 IU/ml penicillin and 100 μg/ml streptomycin (Gibco)) supplemented with 10% fetal calf serum (FCS; Gibco). Transient transfections were carried out 24 h after seeding using GeneJuice (Novagen) or Metafectene (Biontex) according to manufacturer instructions. […] BRET measurements were taken at 37° C. using the Victor Light plate reader with Wallac 1420 software (Perkin-Elmer). Filtered light emissions were sequentially measured for 3-5 s in each of the ‘donor wavelength window’ (400-475 nm) and ‘acceptor wavelength window’ (>500 nm for EGFP or 520-540 nm for EYFP, Topaz (TYFP) or Venus). […]

Chain of bradykinin B2 receptor (B2R) with HA-AT1R (P30411 whole entry): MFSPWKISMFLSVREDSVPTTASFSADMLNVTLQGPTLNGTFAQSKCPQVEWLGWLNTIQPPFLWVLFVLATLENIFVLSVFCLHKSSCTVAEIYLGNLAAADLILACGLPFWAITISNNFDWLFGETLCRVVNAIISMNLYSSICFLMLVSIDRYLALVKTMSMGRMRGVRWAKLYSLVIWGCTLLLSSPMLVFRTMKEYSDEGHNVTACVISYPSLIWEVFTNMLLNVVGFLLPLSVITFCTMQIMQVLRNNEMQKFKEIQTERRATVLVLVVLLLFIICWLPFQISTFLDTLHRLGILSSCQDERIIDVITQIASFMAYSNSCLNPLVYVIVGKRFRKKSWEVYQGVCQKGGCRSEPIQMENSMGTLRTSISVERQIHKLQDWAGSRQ
Chain of bradykinin B2 receptor (B2R) with HA-AT1R (P30556 whole entry): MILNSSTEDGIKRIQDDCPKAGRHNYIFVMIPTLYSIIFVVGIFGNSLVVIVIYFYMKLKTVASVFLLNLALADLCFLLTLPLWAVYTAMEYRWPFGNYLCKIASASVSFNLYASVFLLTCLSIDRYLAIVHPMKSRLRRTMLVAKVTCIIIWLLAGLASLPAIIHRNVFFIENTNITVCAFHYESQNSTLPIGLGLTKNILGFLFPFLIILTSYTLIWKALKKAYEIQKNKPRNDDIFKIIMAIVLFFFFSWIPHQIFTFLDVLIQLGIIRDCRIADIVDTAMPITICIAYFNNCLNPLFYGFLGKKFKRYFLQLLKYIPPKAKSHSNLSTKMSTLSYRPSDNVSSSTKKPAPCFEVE

| Molecule | ligand-induced eBRET signal (OxR2 with HA-TRHR) | eBRET signal ([1]; TRHR335/Rluc + EGFP/barr1 + OxR2) | BRET signal, dose response curves ([1]; TRHR335/Rluc + barr2/Venus + OxR2) | time to eBRET signal peak ([2]; HEK293, TRHR/Rluc + barr2/Venus + pcDNA3, ligand 10^−6M) | eBRET signal peak ([2]; HEK293, TRHR/Rluc + barr2/Venus + pcDNA3, ligand 10^−6M, 37 C) | eBRET signal ([2]; TRHR/Rluc + EGFP/barr (barr1, barr2 or barr1R169E), no OxR2) | dose-response Hill slope ([2]; TRHR/Rluc + barr2/Venus + pcDNA3, FIG. 10) | ligand-induced eBRET signal (OxR2) | eBRET signal (ligand-induced BRET ratio) [3] |
| --- | --- | --- | --- | --- | --- | --- | --- | --- | --- |
| NC(=O)[C@@H]1CCCN1C(=O)[C@H](Cc1cnc[nH]1)NC(=O)[C@@H]1CCC(=O)N1 [TRH, pGlu-His-Pro-NH2] | 0.05 | no eBRET signal above baseline | does not result in a BRET signal | Within the first minute | greater than 0.17 | rapid stimulation of the eBRET signal; also recorded: rapid increase in eBRET signal | approximately 1 | No ligand-induced eBRET signal |  |
| AngII |  |  |  |  |  |  |  |  | robust increase in the eBRET signal |

— patent US8568997B2, “Detection system and uses therefor” (Dimerix Bioscience Pty Ltd., priority 2006, dated 2013)
